Laboratory results as given in patent US12472226B2, “Cell-permeable peptide” (priority 2019, dated 2025).
Non-standard residues stand in square brackets, D forms with d. No end group written: not given here. *: point of attachment. FITC = O=C1OC2(c3ccc(O)cc3Oc3cc(O)ccc32)c2ccc(NC(=S)*)cc21; Ahx = NCCCCCC(=O)O

Columns and labels:
[1] = tested on: HT-1080 cells; test: Test of inducing cell-death in vitro (Calcein-AM/PI dead cell rate); assay type: cell-based, human; conditions: for increase in the dead cell rate: day 21
Excerpt: (§1) Human fibrosarcoma-derived HT-1080 cells (HT-1080 cells, JCRB cell bank) were used as cancer cells in the test for monitoring changes in mitochondrial membrane potential. HT-1080 cells, human osteosarcoma cell line Hos cells (Hos cells, JCRB cell bank), human histiocytic lymphoma/macrophage U937 cells (U937 cells, JCRB cell bank), human myeloid leukemia HL-60 cells (HL-60 cells, JCRB cell bank), acute monocytic leukemia THP-1 cells (THP-1 cells, JCRB cell bank), human alveolar basal epithelial adenocarcinoma cell A549 cells (A549 cells, Cell Resource Center for Biomedical Research, Institute of Development, Aging and Cancer, Tohoku University), human pancreatic carcinoma cells (MIA Paca 2 cells, Cell Resource Center for Biomedical Research, Institute of Development, Aging and Cancer, Tohoku University) and well differentiated human liver carcinoma-derived cell line HuH7 cells (HuH7 cells, Cell Resource Center for Biomedical Research, Institute of Development, Aging and Cancer, Tohoku University) were used as cancer cells in an in vitro cell-death induction test of cancer cells and a nuclear transport test of Example 2. Normal human gingival fibroblast cells Gin-1 (Gin-1 cells, DS Pharma Biomedical) were used as a control. The above-described cells were each inoculated into a 96-well culture plate (Falcon) at 5,000 cells/[…] and subjected to the following tests.
(§2) The peptide of SEQ ID NO: 1 labeled with FITC (Example 2) was used for the test of inducing cell-death in vitro in cancer cells. It was prepared the test example to which 100 μL of Example 2 and further 10% FBS were added and cultured for 9 days under conditions of 200 μL of serum-supplemented medium (Alpha modification of Eagle's MEM (α-MEM) (Thermo Fisher Scientific)+10% FBS). Furthermore, it was also produced the test example that was cultured for 21 days with the whole amount of Example 2-supplemented medium replaced every 7 days. As a control, the cells were cultured in a serum-supplemented medium (α-MEM+10% FBS) without addition and were used. A supernatant was removed after the completion of the culture. The cells were washed once with PBS and stained in PBS to which a fluorescent dye for living cell staining Calcein-AM (DOJINDO LABORATORIES) (final concentration: 0.1 μg/mL) and a fluorescent dye for dead cell staining Propidium Iodide (PI) (DOJINDO LABORATORIES) (final concentration: 0.3 μg/mL) were added, at 37° C. in a 5% CO2 cell incubator for 30 minutes. The living cells and dead cells were separately stained with Calcein-AM and PI, respectively and imaged with the confocal laser scanning microscope LSM800. Next, the dead cell rate relative to the number of total cells was analyzed using ImageJ.
(§3) The results are represented by the average value of the dead cell rate (the number red cells stained with IP/the number of total cells×100(%))±standard deviation (SD). In FIG. 2A, the vertical axis represents the rate of cell death when each cell was cultured with Example 2 (50 μg/mL) for 9 days and the horizontal axis represents various types of cells. The increase in the dead cell rate of the Gin-1 cells was not observed.
The concentrations of Examples 2 and 4 to 6 were adjusted to 12.5, 25, 50 and 100 μg/mL, respectively and then administrated to the HT-1080 cells for 9 days tested by the same method as in Test Example 2A. The cell staining and subsequent analyses of the dead cell rate relative to the number of total cells were performed in the same manner as Test Example 2A.

[2] = tested on: THP-1 cells; test: as above; assay type: cell-based, human; conditions: 50 μg/mL, 9 days
Excerpt: as §1, §2, §3

[3] = tested on: Gin-1 cells; test: as above; assay type: cell-based, human; conditions: 50 μg/mL, 9 days
Excerpt: as §1, §2, §3

[4] = tested on: HL-60 cells; test: as above; assay type: cell-based, human; conditions: 50 μg/mL, 9 days
Excerpt: as §1, §2, §3

[5] = tested on: Hos cells; test: as above; assay type: cell-based, human; conditions: 50 μg/mL, 9 days
Excerpt: as §1, §2, §3

[6] = tested on: U937 cells; test: as above; assay type: cell-based, human; conditions: 50 μg/mL, 9 days
Excerpt: as §1, §2, §3

[7] = tested on: A549 cells; test: Test on nuclear transport (confocal Z scan, DAPI); assay type: cell-based, human; conditions: 50μ/mL, 23 days
Excerpt: as §1
(§4) Similarly, 50μ/mL of Example 2 was added to the A549, MIA Paca2 and HuH7 cells. The cells were cultured for 23 days and then scanned by the Z scan technique using the confocal laser scanning microscope LSM800 after dyed with DAPI. FIG. 5B is each photograph of XY, XZ and YZ cross sections that were merged with Example 2 (green) and DAPI (blue) in the variety of cancer cells. As a result, the color of the images merged with Example 2 and DAPI dye took on light blue.

[8] = tested on: HuH7 cells; test: Test on nuclear transport (confocal Z scan, DAPI); assay type: cell-based, human; conditions: 50μ/mL, 23 days
Excerpt: as §1, §4

[9] = tested on: MIA Paca2 cells; test: Test on nuclear transport (confocal Z scan, DAPI); assay type: cell-based, human; conditions: 50μ/mL, 23 days
Excerpt: as §1, §4

[10] = biological target: T1, CD13 on Gin-1 cells (Homo sapiens, UniProt P15144); test: Binding test to cell membrane (confocal, CD13 co-staining); assay type: cell-based; conditions: 1 μg/100 μL, 4° C., 1 hour
T1 construct: endogenous in cells; host or cells: Gin-1 cells
T1 sequence (P15144 whole entry): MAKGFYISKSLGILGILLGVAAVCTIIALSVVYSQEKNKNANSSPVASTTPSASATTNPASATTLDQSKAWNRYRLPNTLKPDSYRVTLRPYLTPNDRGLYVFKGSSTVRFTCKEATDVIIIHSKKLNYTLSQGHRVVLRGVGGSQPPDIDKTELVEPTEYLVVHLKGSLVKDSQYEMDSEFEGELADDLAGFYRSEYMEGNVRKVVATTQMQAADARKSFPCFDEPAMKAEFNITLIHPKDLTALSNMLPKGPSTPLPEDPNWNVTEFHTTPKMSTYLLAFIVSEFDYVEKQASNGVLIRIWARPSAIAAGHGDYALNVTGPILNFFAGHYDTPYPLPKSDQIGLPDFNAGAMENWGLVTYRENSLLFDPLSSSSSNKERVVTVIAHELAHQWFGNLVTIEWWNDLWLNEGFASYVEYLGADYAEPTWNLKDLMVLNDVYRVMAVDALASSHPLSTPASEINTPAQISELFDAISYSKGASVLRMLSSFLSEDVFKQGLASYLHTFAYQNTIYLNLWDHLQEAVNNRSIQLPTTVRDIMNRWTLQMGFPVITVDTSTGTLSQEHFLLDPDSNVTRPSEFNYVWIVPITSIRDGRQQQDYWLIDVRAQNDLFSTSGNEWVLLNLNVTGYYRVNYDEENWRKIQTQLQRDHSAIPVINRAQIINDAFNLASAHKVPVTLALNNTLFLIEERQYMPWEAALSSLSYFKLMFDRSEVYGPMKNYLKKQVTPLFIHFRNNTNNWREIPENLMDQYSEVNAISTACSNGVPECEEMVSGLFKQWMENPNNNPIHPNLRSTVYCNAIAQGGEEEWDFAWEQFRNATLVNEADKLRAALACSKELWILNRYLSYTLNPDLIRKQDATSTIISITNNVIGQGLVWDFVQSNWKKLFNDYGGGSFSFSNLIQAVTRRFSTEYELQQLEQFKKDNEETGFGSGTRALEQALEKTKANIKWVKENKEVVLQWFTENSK
Description: (§5) A PE-labeled human CD13 antibody (Clone: WM-15 Biolegend) ([…]) and Example 2 (1 μg/100 μL) were added to each of the cells (500,000 cells/[…]), and the cells were stained at 4° C. for 1 hour. After the cells were washed with PBS, CD13 expression of each cell and binding site of Example 2 were observed as the standard of the fluorescence intensity of the HT-1080 cells using the confocal laser scanning microscope LSM800. The expression of CD13 (red) was strongest and the luminescence of Example 2 (green) was also strong in the HT-1080 and Gin-1 cells. […] Further, the same phenomenon about CD13 expression was also recognized in the U937, HL-60, THP-1 and Hos cells (not shown).

[11] = biological target: T2, CD13 on HT-1080 cells (Homo sapiens, UniProt P15144); test: as above; assay type: cell-based; conditions: 1 μg/100 μL, 4° C., 1 hour
T2 construct: endogenous in cells; host or cells: HT-1080 cells
T2 sequence (P15144 whole entry): as above
Description: as §5

## Example 2: peptide of SEQ ID NO: 1 labeled with FITC, bound via an Ahx linker at the N-terminus ({FITC}-[Ahx]KDNRGNLLQCVCTGNGRGEWKC; cysteine pairing not given here)
[1]; 6.25 μg/mL
  increase in the dead cell rate: ≥ 75%
[1]; 12.5 μg/mL
  increase in the dead cell rate: ≥ 75%
[1]; 25 μg/mL
  increase in the dead cell rate: ≥ 95%
[1]; 50 μg/mL, 9 days
  increase in the dead cell rate vs control: significant difference at the level of 1%
[1]; 50 μg/mL
  increase in the dead cell rate: ≥ 95%
[1]; 100 μg/mL
  increase in the dead cell rate: ≥ 95%
[2]
  increase in the dead cell rate vs control: significant difference at the level of 5%
[3]
  increase in the dead cell rate vs control: not observed
[4]
  increase in the dead cell rate vs control: significant difference at the level of 1%
[5]
  increase in the dead cell rate vs control: significant difference at the level of 1%
[6]
  increase in the dead cell rate vs control: significant difference at the level of 1%
[7]
  intracellular localization: transfer to a nucleus and bind to a chromosome DNA
[8]
  intracellular localization: transfer to a nucleus and bind to a chromosome DNA
[9]
  intracellular localization: transfer to a nucleus and bind to a chromosome DNA
[10]
  colocalization with CD13 (overlay images): colocalized
  luminescence of the peptide (green) on cells: strong
[11]
  colocalization with CD13 (overlay images): colocalized
  luminescence of the peptide (green) on cells: strong
